Measured values reported in patent publication US20230146455A1, “TREATMENT OF INFLAMMATORY DISEASES WITH PEPTIDES AND PHARMACEUTICAL COMPOSITIONS” (Yuyu Pharma, Inc., priority 2020, published 2023).
Values joined by “and” are separate entries in the source; they are usually repeats but may differ in a detail not shown here. Equal values may be shown once. Where a SMILES comes first, the peptide text is derived from it. [ ]: non-standard residue; d: D form. Hyp = O=C(O)[C@@H]1C[C@@H](O)CN1

Tested on: CCL3/MIP-1 alpha
Experiment: Example 8 main study Luminex, LPS hPBMCs: CCL3/MIP-1 alpha
Type: cell-based, human
Method: Human PBMCs were pretreated with YY-101, YDE-011, YDE-043 or reference compound; Xiidra® at various concentration (ranging from […] to 500 nM) for 2 h before stimulation. An equal volume of 0.5% DMSO was used as a vehicle control. Then, the cells were treated with LPS at 5 ug/ml, which was selected based on the pilot study. The supernatants from treated cells were harvested at 24 h and placed in a 96 well for Luminex cytokine & chemokine profiling using a Luminex 200 multiplex assay (Luminex; R&D system, USA).
The main study arm with triplicate wells per group in a 24-well plate: • 1. Blank • 2. PBMC: 0.5% DMSO • 3. PBMC+LPS (5 ug/ml) • 4. PBMC+YY-101 500 nM • 5. PBMC+YY-101 50 nM • 6. PBMC+YY-101 5 nM • 7. PBMC+YY-101 0.5 nM • 8. PBMC+LPS (5 ug/ml)+Xiidra® 500 nM • 9. PBMC+LPS (5 ug/ml)+Xiidra® 50 nM • 10. PBMC+LPS (5 ug/ml)+Xiidra® 5 nM • 11. PBMC+LPS (5 ug/ml)+Xiidra® 0.5 nM • 12. PBMC+LPS (5 ug/ml)+Xiidra® 0.05 nM • 13. PBMC+LPS (5 ug/ml)+Xiidra® 0.005 nM • 14. PBMC+LPS (5 ug/ml)+YY-101 500 nM • 15. PBMC+LPS (5 ug/ml)+YY-101 50 nM • 16. PBMC+LPS (5 ug/ml)+YY-101 5 nM • 17. PBMC+LPS (5 ug/ml)+YY-101 0.5 nM • 18. PBMC+LPS (5 ug/ml)+YY-101 0.05 nM • 19. PBMC+LPS (5 ug/ml)+YY-101 0.005 nM • 20. PBMC+LPS (5 ug/ml)+YDE-011 500 nM • 21. PBMC+LPS (5 ug/ml)+YDE-011 50 nM • 22. PBMC+LPS (5 ug/ml)+YDE-011 5 nM • 23. PBMC+LPS (5 ug/ml)+YDE-011 0.5 nM • 24. PBMC+LPS (5 ug/ml)+YDE-011 0.05 nM • 25. PBMC+LPS (5 ug/ml)+YDE-011 0.005 nM • 26. PBMC+LPS (5 ug/ml)+YDE-043 500 nM • 27. PBMC+LPS (5 ug/ml)+YDE-043 50 nM • 28. PBMC+LPS (5 ug/ml)+YDE-043 5 nM • 29. PBMC+LPS (5 ug/ml)+YDE-043 0.5 nM • 30. PBMC+LPS (5 ug/ml)+YDE-043 0.05 nM • 31. PBMC+LPS (5 ug/ml)+YDE-043 0.005 nM
Multiplex assay was used to measure 30 cytokines and chemokines. The 1:200 diluted cell supernatant and serial dilution of the standard were dispensed into a 96 well plate at 50 ul/well. Then, the pre-mixed cocktail of antibody-coated magnetic beads was dispensed at 50 ul/well and incubated at room temperature for 2 h in a horizontal orbital microplate shaker at 800±500 rpm. The beads were washed using a magnetic device to prevent loss. The biotin-antibody was dispensed in 50 ul of each well and incubated at room temperature for 1 h in a shaker at 800±500 rpm. After washing, streptavidin-PE was added at 50 ul/well and incubated at room temperature for 30 min in a shaker under the same conditions. Finally, after washing, wash buffer (100 ul/well) was added to the plate and incubated in a shaker for 2 min. The Luminex™ 200 setting were set according to the manufacturer's protocol. The data was calculated with a standard five-parameter logistic nonlinear regression analysis of the data (xPonent software 4.2, USA). Results were presented as concentration (ng/ml or pg/ml).

[1] = PBMC + LPS(5 ug/ml) + test article 0.005 nM, Mean
[2] = PBMC + LPS(5 ug/ml) + test article 0.005 nM, single replicates
[3] = PBMC + LPS(5 ug/ml) + test article 0.05 nM, Mean
[4] = PBMC + LPS(5 ug/ml) + test article 0.05 nM, single replicates
[5] = PBMC + LPS(5 ug/ml) + test article 0.5 nM, Mean
[6] = PBMC + LPS(5 ug/ml) + test article 0.5 nM, single replicates
[7] = PBMC + LPS(5 ug/ml) + test article 5 nM, Mean
[8] = PBMC + LPS(5 ug/ml) + test article 5 nM, single replicates
[9] = PBMC + LPS(5 ug/ml) + test article 50 nM, Mean
[10] = PBMC + LPS(5 ug/ml) + test article 50 nM, single replicates
[11] = PBMC + LPS(5 ug/ml) + test article 500 nM, Mean
[12] = PBMC + LPS(5 ug/ml) + test article 500 nM, single replicates
[13] = PBMC + test article 0.5 nM, no LPS, Mean
[14] = PBMC + test article 0.5 nM, no LPS, single replicates
[15] = PBMC + test article 5 nM, no LPS, Mean
[16] = PBMC + test article 5 nM, no LPS, single replicates
[17] = PBMC + test article 0.05 uM, no LPS, Mean
[18] = PBMC + test article 0.05 uM, no LPS, single replicates
[19] = PBMC + test article 50 nM, no LPS, Mean
[20] = PBMC + test article 50 nM, no LPS, single replicates
[21] = PBMC + test article 500 nM, no LPS, Mean
[22] = PBMC + test article 500 nM, no LPS, single replicates

CC(C)C[C@H](NC(=O)CNC(=O)[C@H](CC(=O)O)NC(=O)[C@H](CCC(N)=O)NC(=O)CNC(=O)[C@@H]1C[C@@H](O)CN1)C(=O)N[C@@H](C)C(=O)NCC(=O)N1CCC[C@H]1C(=O)N[C@@H](CCCCN)C(=O)O [YY-101] (H-[Hyp]GQDGLAGPK-OH; N-terminus and C-terminus assumed) was tested, and the “CCL3/MIP-1 alpha Concentration” value [1] was 33793.5 pg/mL, the “CCL3/MIP-1 alpha MFI” value [1] was 46.8 and the “CCL3/MIP-1 alpha Concentration” value [2] was 35134.4 pg/mL and 33380.1 pg/mL and 32865.8 pg/mL. For the same compound, the “CCL3/MIP-1 alpha MFI” value [2] was 49.5 and 46.0 and 45.0, the “CCL3/MIP-1 alpha Concentration” value [3] was 36420.8 pg/mL and the “CCL3/MIP-1 alpha MFI” value [3] was 52.2. The “CCL3/MIP-1 alpha Concentration” value [4] was 35866.0 pg/ml (2×) and 37530.4 pg/ml, the “CCL3/MIP-1 alpha MFI” value [4] was 51.0 (2×) and 54.5 and the “CCL3/MIP-1 alpha Concentration” value [5] was 34955.7 pg/mL. For the same compound, the “CCL3/MIP-1 alpha MFI” value [5] was 49.2, the “CCL3/MIP-1 alpha Concentration” value [6] was 36107.4 pg/mL and 33380.1 pg/mL and 35379.6 pg/mL and the “CCL3/MIP-1 alpha MFI” value [6] was 51.5 and 46.0 and 50.0. The “CCL3/MIP-1 alpha Concentration” value [7] was 34545.7 pg/mL, the “CCL3/MIP-1 alpha MFI” value [7] was 48.3 and the “CCL3/MIP-1 alpha Concentration” value [8] was 33380.1 pg/mL and 35866.0 pg/mL and 34390.9 pg/mL. For the same compound, the “CCL3/MIP-1 alpha MFI” value [8] was 46.0 and 51.0 and 48.0, the “CCL3/MIP-1 alpha Concentration” value [9] was 33677.2 pg/mL and the “CCL3/MIP-1 alpha MFI” value [9] was 46.7. For the same compound, the “CCL3/MIP-1 alpha Concentration” value [10] was 31818.4 pg/mL and 36347.5 pg/mL and 32865.8 pg/mL, the “CCL3/MIP-1 alpha MFI” value [10] was 43.0 and 52.0 and 45.0 and the “CCL3/MIP-1 alpha Concentration” value [11] was 33967.7 pg/mL. For the same compound, the “CCL3/MIP-1 alpha MFI” value [11] was 47.2, the “CCL3/MIP-1 alpha Concentration” value [12] was 33635.0 pg/mL and 34887.9 pg/mL and 33380.1 pg/mL and the “CCL3/MIP-1 alpha MFI” value [12] was 46.5 and 49.0 and 46.0. For the same compound, the “CCL3/MIP-1 alpha Concentration” value [13] was 16345.0 pg/mL, the “CCL3/MIP-1 alpha MFI” value [13] was 19.5 and the “CCL3/MIP-1 alpha Concentration” value [14] was 15903.7 pg/mL and 16786.4 pg/mL. The “CCL3/MIP-1 alpha MFI” value [14] was 19.0 and 20.0, the “CCL3/MIP-1 alpha Concentration” value [15] was 14259.0 pg/mL and the “CCL3/MIP-1 alpha MFI” value [15] was 17.3. For the same compound, the “CCL3/MIP-1 alpha Concentration” value [16] was 14014.0 pg/mL and 14504.0 pg/mL, the “CCL3/MIP-1 alpha MFI” value [16] was 17.0 and 17.5 and the “CCL3/MIP-1 alpha Concentration” value [17] was 13904.3 pg/mL. The “CCL3/MIP-1 alpha MFI” value [17] was 17.0, the “CCL3/MIP-1 alpha Concentration” value [18] was 15903.7 pg/mL and 11904.9 pg/mL and the “CCL3/MIP-1 alpha MFI” value [18] was 19.0 and 15.0. The “CCL3/MIP-1 alpha Concentration” value [19] was 14246.1 pg/mL, the “CCL3/MIP-1 alpha MFI” value [19] was 17.3 and the “CCL3/MIP-1 alpha Concentration” value [20] was 13510.6 pg/mL and 14981.7 pg/mL. The “CCL3/MIP-1 alpha MFI” value [20] was 16.5 and 18.0, the “CCL3/MIP-1 alpha Concentration” value [21] was 14014.0 pg/mL and the “CCL3/MIP-1 alpha MFI” value [21] was 17.0. For the same compound, the “CCL3/MIP-1 alpha Concentration” value [22] was 14014.0 pg/mL, the “CCL3/MIP-1 alpha MFI” value [22] was 17.0 and the “LPS-induced CCL-3 (in words)” value (at as low as 5 μM, LPS 5 ug/mL 24 hrs) was “significantly reduced”.
